Assay results taken from ChEMBL document CHEMBL5058646 (2022).

What was measured:
[1] = target: T1, Zinc finger and BTB domain-containing protein 40 (Homo sapiens) (UniProt Q9NUA8); conditions: OCI-Ly1, Compound concentration 1.0 uM
T1 sequence (whole entry): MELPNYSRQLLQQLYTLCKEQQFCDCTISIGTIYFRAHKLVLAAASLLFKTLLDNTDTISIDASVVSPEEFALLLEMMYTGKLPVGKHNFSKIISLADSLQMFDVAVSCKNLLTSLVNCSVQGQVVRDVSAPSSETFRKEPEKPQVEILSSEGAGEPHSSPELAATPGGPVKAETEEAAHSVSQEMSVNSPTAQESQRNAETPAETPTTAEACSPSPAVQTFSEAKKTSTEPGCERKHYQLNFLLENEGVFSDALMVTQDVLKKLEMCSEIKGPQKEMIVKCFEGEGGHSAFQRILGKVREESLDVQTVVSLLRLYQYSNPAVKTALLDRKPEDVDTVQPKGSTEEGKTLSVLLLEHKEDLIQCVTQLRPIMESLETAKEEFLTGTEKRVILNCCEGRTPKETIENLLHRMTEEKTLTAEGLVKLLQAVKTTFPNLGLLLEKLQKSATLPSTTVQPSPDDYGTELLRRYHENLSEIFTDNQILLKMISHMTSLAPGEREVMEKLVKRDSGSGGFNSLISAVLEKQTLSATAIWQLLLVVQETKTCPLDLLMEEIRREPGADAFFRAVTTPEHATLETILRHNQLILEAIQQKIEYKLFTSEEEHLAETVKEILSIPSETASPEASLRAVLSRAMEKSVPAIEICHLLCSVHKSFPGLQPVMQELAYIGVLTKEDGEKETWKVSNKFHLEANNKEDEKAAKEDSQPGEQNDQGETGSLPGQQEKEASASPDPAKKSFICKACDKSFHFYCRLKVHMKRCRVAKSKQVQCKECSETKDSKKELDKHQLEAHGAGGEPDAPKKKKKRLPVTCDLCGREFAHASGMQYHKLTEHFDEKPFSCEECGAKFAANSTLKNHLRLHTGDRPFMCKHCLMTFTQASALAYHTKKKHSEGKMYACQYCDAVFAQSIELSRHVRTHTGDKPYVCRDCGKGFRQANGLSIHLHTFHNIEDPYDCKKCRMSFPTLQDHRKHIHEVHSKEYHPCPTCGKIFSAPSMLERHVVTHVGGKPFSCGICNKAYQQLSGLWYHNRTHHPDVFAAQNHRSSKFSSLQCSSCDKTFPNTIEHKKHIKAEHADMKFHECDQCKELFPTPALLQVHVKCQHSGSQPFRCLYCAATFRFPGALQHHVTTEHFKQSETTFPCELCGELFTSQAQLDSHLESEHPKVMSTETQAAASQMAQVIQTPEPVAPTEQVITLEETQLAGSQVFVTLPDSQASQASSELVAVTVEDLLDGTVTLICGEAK

[2] = target: T2, Zinc finger and BTB domain-containing protein 1 (Homo sapiens) (UniProt Q9Y2K1); conditions: OCI-Ly1, Compound concentration 1.0 uM
T2 sequence (whole entry): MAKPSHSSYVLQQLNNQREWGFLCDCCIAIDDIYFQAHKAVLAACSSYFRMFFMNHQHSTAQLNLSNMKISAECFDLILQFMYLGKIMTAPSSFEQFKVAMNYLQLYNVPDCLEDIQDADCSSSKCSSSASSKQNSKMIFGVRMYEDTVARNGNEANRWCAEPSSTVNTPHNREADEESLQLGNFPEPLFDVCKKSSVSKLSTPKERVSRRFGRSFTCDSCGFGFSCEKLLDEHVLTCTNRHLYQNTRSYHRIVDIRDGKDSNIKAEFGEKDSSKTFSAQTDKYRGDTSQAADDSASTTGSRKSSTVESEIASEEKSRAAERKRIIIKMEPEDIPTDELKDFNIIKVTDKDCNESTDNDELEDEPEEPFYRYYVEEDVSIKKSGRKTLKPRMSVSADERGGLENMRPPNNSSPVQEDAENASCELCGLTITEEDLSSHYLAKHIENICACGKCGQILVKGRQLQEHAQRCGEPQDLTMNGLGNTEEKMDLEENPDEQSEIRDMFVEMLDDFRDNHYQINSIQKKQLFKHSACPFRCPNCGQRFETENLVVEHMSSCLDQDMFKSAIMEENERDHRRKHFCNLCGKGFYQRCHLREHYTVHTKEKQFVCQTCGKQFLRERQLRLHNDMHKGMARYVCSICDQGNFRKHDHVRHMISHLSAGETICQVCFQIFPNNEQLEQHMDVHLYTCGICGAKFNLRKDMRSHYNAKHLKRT

[3] = target: T2, Zinc finger and BTB domain-containing protein 1 (Homo sapiens); conditions: SUD4, Compound concentration 1.0 uM
[4] = target: Vasopressin V1a receptor (Homo sapiens) (UniProt P37288); experiment: GPCRScan assay: inhibition of V1A; set-up: radioligand conc. used [nm], parental cells; conditions: Compound concentration 10.0 uM
Vasopressin V1a receptor (Homo sapiens), sequence (P37288 whole entry, looked up): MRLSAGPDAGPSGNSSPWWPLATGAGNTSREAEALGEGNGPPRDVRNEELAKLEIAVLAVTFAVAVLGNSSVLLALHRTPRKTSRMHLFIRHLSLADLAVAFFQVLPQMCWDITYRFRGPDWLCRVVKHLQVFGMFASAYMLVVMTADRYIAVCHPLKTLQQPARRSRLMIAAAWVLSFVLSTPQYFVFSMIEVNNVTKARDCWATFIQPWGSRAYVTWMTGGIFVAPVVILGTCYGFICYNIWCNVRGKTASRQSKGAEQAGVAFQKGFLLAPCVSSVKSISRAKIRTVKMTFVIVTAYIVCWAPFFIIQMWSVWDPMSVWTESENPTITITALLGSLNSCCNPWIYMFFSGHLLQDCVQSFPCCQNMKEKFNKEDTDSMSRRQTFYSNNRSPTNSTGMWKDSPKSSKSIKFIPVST

[5] = target: Ephrin type-A receptor 7 (Homo sapiens) (UniProt Q15375); experiment: EPHA7 SGC Tm panel (DSF); conditions: Compound concentration 20.0 uM
Ephrin type-A receptor 7 (Homo sapiens), sequence (Q15375 28-998 limits assumed): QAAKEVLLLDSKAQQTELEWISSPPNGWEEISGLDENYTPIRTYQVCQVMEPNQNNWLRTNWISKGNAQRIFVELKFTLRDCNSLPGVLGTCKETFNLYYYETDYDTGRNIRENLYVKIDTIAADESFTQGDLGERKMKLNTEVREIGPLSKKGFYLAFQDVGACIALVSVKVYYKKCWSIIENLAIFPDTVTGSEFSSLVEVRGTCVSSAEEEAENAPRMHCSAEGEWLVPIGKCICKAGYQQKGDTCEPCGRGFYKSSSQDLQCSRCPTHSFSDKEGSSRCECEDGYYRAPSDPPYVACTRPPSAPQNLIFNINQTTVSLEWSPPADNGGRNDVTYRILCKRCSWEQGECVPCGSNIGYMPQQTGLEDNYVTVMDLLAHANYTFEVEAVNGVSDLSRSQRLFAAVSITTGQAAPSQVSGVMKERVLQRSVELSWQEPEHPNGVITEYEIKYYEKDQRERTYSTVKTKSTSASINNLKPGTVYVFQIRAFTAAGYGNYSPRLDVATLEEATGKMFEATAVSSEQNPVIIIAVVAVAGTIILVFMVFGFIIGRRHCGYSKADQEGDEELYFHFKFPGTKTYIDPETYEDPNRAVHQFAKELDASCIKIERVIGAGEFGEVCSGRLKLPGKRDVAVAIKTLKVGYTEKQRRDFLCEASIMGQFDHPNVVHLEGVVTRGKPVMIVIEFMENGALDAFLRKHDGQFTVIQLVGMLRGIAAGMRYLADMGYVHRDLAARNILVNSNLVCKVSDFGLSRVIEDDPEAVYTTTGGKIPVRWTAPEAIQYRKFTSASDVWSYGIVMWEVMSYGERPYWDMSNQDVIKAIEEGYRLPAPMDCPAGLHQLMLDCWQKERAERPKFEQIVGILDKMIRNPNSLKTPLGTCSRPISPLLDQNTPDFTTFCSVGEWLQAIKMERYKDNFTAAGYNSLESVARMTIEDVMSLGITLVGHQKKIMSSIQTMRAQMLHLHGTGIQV

[6] = target: T3, Zinc finger and BTB domain-containing protein 24 (Homo sapiens) (UniProt O43167); conditions: OCI-Ly1, Compound concentration 1.0 uM
T3 sequence (whole entry): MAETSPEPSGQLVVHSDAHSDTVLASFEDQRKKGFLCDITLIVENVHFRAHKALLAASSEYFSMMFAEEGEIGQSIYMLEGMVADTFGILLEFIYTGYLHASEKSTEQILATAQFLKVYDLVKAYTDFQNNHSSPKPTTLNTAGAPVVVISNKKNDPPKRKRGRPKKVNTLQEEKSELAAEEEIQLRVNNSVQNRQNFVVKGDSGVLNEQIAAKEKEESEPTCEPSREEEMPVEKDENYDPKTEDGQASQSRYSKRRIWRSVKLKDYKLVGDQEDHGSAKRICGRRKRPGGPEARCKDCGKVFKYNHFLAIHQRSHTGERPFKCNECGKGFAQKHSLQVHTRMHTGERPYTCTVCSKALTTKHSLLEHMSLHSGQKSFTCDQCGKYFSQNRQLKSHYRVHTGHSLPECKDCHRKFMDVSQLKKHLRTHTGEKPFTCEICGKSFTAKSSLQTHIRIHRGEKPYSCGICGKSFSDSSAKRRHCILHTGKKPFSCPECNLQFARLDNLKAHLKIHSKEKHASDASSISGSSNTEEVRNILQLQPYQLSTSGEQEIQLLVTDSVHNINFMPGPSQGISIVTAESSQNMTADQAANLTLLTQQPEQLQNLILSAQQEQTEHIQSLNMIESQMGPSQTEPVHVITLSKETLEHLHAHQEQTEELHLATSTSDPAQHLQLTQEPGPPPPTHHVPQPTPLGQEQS

[7] = target: Sigma intracellular receptor 2 (Homo sapiens, UniProt Q5BJF2); conditions: Compound concentration 10.0 uM
Sigma intracellular receptor 2, sequence (Q5BJF2 whole entry): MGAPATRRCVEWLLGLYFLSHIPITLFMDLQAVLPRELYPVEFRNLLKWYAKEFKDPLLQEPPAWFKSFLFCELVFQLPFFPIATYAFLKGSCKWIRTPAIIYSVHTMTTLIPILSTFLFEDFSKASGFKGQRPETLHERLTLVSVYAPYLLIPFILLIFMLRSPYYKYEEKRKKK

Myoneurin (Homo sapiens) = Myoneurin (Homo sapiens) (UniProt Q9NPC7); conditions: SUD4, Compound concentration 1.0 uM
Myoneurin (Homo sapiens), sequence (Q9NPC7 whole entry): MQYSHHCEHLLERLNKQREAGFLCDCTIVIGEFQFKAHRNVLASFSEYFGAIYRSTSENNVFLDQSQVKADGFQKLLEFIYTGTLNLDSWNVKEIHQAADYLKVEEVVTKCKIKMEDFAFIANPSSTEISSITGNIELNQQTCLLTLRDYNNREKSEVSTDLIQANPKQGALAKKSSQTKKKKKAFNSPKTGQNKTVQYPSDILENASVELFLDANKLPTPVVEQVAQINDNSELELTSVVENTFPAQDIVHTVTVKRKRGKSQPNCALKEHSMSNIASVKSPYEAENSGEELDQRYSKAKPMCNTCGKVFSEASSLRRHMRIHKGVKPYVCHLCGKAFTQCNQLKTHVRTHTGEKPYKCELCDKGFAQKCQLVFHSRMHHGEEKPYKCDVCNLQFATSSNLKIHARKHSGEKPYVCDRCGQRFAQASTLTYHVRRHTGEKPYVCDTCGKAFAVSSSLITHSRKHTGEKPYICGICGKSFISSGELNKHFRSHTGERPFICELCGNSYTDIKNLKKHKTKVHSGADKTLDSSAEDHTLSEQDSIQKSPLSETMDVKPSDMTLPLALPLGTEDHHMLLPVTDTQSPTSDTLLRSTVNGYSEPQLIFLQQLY

[8] = target: Vascular endothelial growth factor receptor 1 (Homo sapiens) (UniProt P17948); experiment: FLT1 SGC Tm panel (DSF); conditions: Compound concentration 20.0 uM
Vascular endothelial growth factor receptor 1 (Homo sapiens), sequence (P17948 whole entry): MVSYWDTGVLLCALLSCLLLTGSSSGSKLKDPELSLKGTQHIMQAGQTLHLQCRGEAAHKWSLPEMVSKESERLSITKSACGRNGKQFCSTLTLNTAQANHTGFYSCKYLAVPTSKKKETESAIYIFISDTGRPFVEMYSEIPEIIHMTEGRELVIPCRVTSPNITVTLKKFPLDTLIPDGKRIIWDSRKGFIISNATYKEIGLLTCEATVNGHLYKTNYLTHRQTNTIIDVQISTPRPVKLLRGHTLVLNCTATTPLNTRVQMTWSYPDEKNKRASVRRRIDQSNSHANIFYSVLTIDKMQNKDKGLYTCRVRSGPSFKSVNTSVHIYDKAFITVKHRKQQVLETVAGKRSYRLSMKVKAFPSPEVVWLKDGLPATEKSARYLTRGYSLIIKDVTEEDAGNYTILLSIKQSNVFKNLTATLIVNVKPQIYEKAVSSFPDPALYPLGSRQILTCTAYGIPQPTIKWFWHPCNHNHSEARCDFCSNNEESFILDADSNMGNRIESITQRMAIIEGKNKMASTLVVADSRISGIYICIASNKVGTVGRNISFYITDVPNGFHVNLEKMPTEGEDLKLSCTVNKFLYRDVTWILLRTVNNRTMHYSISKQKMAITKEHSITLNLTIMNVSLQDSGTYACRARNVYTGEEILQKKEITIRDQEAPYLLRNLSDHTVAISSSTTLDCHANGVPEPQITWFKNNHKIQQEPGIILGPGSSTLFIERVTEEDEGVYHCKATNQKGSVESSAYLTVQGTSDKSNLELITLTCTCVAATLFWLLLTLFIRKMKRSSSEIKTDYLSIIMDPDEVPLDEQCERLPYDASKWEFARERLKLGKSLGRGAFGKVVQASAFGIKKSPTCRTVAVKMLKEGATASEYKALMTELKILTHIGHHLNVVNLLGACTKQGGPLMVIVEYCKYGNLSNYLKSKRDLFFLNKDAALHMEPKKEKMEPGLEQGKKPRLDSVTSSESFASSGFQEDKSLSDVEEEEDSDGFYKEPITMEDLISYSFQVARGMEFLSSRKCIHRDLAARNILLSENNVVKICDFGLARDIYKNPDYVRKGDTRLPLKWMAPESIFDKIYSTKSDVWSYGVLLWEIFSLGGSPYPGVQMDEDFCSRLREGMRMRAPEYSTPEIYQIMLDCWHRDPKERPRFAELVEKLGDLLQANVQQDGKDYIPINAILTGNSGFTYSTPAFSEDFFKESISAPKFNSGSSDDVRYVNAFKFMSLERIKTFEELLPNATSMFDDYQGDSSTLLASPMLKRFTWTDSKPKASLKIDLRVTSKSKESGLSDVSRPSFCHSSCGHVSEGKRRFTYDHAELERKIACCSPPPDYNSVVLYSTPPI

C[C@@H]1CN(c2ncc(Cl)c(Nc3ccc4c(c3)n(CCC(C)(C)O)c(=O)n4C)n2)C[C@H](C)C1(F)F
LogFC [1]: -0.194 | LogFC [2]: -0.0612 | LogFC [3]: 0.0235 | inhibition [4]: 78.6% | Tm [5]: 48 °C | LogFC [6]: -0.111 | inhibition [7]: 85.7% | LogFC (Myoneurin (Homo sapiens)): -0.135 | Tm [8]: 45 °C
